Reference: article PMC11645267, “Novel pharmacologic inhibition of lysine-specific demethylase 1 as a potential therapeutic for glioblastoma” (Cancer Gene Therapy, 2024)

Columns and labels:
MAO-B = biological target: T1, MAO-B (Homo sapiens, UniProt P27338); experiment: Enzyme inhibition assay (in vitro peroxidase assay) against MAO-B
T1 sequence (P27338 1-520): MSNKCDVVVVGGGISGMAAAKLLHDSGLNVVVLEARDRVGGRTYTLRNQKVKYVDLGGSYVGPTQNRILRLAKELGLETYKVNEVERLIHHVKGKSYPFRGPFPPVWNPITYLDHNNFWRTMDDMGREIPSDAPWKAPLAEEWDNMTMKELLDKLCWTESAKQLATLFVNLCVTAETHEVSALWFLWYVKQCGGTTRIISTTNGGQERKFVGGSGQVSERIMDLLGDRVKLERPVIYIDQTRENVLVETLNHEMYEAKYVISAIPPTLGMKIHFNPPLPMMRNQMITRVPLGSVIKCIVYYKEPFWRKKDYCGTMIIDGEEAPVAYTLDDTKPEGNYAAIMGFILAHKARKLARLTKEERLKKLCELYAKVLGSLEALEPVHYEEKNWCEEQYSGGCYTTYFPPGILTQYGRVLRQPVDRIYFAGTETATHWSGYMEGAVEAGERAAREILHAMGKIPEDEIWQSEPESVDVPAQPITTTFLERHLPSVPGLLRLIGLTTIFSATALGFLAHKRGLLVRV
Description: Enzyme inhibition assays against LSD1, LSD2, MAO-A, and MAO-B were performed as previously described [25]. Technical replicates, n = 3.

GSC and LN229 cells = experiment: PARP cleavage (apoptosis) by western blot; type: cell-based; settings: GSC1228, GSC222, GSC316, LN229; 5 μM
Text: Super-enhancers consist of enhancer clusters with abundant binding of transcription factors and are highly enriched with H3K27ac marks. The H3K4me2 increased regions included the MYC locus and H3K4me2 de novo regions comprised Nestin and SOX2 loci (Fig. 2F, Supplementary Fig. S5A). These regions were also identified as super-enhancers in GSCs using data from our previous study (Fig. 2F). Compared to the large increase in H3K4me2 in these regions, changes in H3K4me3 were subtle after S2172 treatment (only 2582 regions were acquired modification) (Fig. 2C). Increasing the me2/me3 ratio at H3K4 is associated with reduced gene expression.
A mRNA expression of stem cell marker genes following 96 h treatment of GSC1228 with S2172 (5 μM). The y-axis indicates the expression change relative to DMSO-treated cells. Error bar indicates the SD. *P < 0.05. B Left panel, western blot analysis of MYC, Nestin, and SOX2 after treatment of GSC1228 with either DMSO or S2172 (5 μM) for 96 h. β-actin (ACTB) was used as the loading control. Right panel, Quantification of band signal intensities from the western blot. […] The ratio was calculated by dividing the cleaved-PARP band intensity by the full length-PARP band intensity. […]
[…] Quantification of signal intensity of western blot (right panel). […] Ratio was calculated by dividing cleaved band intensity by total protein band intensity. […]

## NC1CCC(NC2CC2c2cc(F)cc(F)c2OCc2ccccc2)CC1 (stereo not drawn) [S2172]
MAO-B
  Ki: > 250 µM
MAO-B; in vitro peroxidase assay
  Inhibition of MAO-B (in words): not inhibited
GSC and LN229 cells
  apoptosis, increased cleaved PARP: induced apoptosis
